Assay results: US20110274657A1, “OXADIAZOLE DERIVATIVES AS S1P1 RECEPTOR ANTAGONISTS” (priority 2009, published 2011)

Biological target: S1P1 receptors (Homo sapiens, UniProt P21453)
Test: 35S-GTPyS binding assay
Format: biochemical
Settings: 35S-GTPyS binding to membranes, 90 min at room temperature; 10 μM S1P used as 100% maximum efficacy
Experimental: The effect of the compounds was measured using a 35S-GTPyS binding assay. Briefly, membranes were incubated in a buffer containing 20 mM HEPES pH 7.4, 100 mM NaCl, 10 mM MgCl2, 10 μM GDP, 50 μg/mL saponin and 0.2% fatty acid-free BSA at various concentrations (0.1 nM-10 μM) and 0.1 nM 35S-GTPyS. 10 μM S1P was used as 100% maximum efficacy. The assay was incubated for 90 min at room temperature with gentle mixing, and terminated by filtrating the reaction mixture through GF/C filter plates using the Manifold Filtration System. The filters were immediately washed with sodium phosphate pH 7.4 buffer. After drying the filter plates scintillant liquid were added to each well and 35S-GTPyS binding was measured on a Trilux Scintillation Counter.

S1P1 receptors, sequence (P21453 whole entry): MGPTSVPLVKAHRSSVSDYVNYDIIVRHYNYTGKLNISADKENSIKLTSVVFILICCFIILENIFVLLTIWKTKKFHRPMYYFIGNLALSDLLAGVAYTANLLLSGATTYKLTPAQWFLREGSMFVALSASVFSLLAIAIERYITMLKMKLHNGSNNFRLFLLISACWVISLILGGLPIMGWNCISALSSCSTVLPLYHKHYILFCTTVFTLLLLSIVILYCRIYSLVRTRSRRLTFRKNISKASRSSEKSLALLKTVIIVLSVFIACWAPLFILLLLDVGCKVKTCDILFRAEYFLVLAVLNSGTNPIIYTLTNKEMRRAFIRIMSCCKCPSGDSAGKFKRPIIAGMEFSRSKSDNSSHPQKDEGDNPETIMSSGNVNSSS

| EC50 [µM] | SMILES |
| --- | --- |
| 0.029 | CCc1ncc(-c2nc(-c3cc(C)c(CCC(N)=O)c(C)c3)no2)c2c1CC(C)(C)CC2 [Example 6, 3-(4-(5-(1-ethyl-7,7-dimethyl-5,6,7,8-tetrahydroisoquinolin-4-yl)-1,2,4-oxadiazol-3-yl)-2,6-dimethylphenyl)propanamide] |
| 0.0108 | CCc1ncc(-c2nc(-c3cc(C)c(CCN)c(C)c3)no2)c2c1CC(C)(C)CC2 [Example 7, 2-(4-(5-(1-ethyl-7,7-dimethyl-5,6,7,8-tetrahydroisoquinolin-4-yl)-1,2,4-oxadiazol-3-yl)-2,6-dimethylphenyl)ethanamine] |
| 0.0285 | Cc1cc(-c2noc(-c3cnc(C4CC4)c4c3CCC(C)(C)C4)n2)cc(C)c1CCC(=O)O [Example 8, 3-(4-(5-(1-cyclopropyl-7,7-dimethyl-5,6,7,8-tetrahydroisoquinolin-4-yl)-1,2,4-oxadiazol-3-yl)-2,6-dimethylphenyl)propanoic acid] |
| 0.019 | Cc1cc(-c2noc(-c3cncc4c3CCC(C)(C)C4)n2)cc(C)c1CC(O)CO (centres unmarked) [Example 22, 3-(4-(5-(7,7-dimethyl-5,6,7,8-tetrahydroisoquinolin-4-yl)-1,2,4-oxadiazol-3-yl)-2,6-dimethylphenyl)propane-1,2-diol] |
| 0.0194 | Cc1cc(-c2noc(-c3cncc4c3CCC(C)(C)C4)n2)cc(C)c1CCNCC(F)F [Example 24, N-(4-(5-(7,7-dimethyl-5,6,7,8-tetrahydroisoquinolin-4-yl)-1,2,4-oxadiazol-3-yl)-2,6-dimethylphenethyl)-2,2-difluoroethanamine] |
| 0.0367 | Cc1cc(-c2noc(-c3cncc4c3CCC(C)(C)C4)n2)cc(C)c1CCN1CC(C(=O)O)C1 [Example 25, 1-(4-(5-(7,7-dimethyl-5,6,7,8-tetrahydroisoquinolin-4-yl)-1,2,4-oxadiazol-3-yl)-2,6-dimethylphenethyl)azetidine-3-carboxylic acid] |
| 0.0164 | CNc1ncc(-c2nc(-c3cc(C)c(OCCN)c(C)c3)no2)c2c1CC(C)(C)CC2 [Example 36, 4-{3-[4-(2-aminoethoxy)-3,5-dimethylphenyl]-1,2,4-oxadiazol-5-yl}-N,7,7-trimethyl-5,6,7,8-tetrahydroisoquinolin-1-amine] |
| 0.0217 | Cc1cc(-c2noc(-c3cnc(N(C)C)c4c3CCC(C)(C)C4)n2)cc(C)c1CC(O)CO (centres unmarked) [Example 37, 3-(4-{5-[1-(dimethylamino)-7,7-dimethyl-5,6,7,8-tetrahydroisoquinolin-4-yl]-1,2,4-oxadiazol-3-yl}-2,6-dimethylphenyl)propane-1,2-diol] |
